The values below come from patent US10550089B2, “Inhibitors of protease-activated receptor-2” (Heptares Therapeutics Limited, priority 2016, dated 2020).

Test [1] concerns the target T1, PAR2 (Homo sapiens (Human), UniProt P55085). Kind of test: IP-One HTRF assay for PAR2 antagonist activity (IP1 production). Format: cell-based. The method, then:
Protocol for Testing Compounds for PAR2 Antagonist Activity Using an IP-One HTRF Assay
Inositol monophosphate (IP1) production were measured in 1321N1 cells stably expressing human PAR2 using an IP-One HTRF assay kit (Cisbio). […] After 60 min at 37° C. cells were lysed and IP1 concentrations were detected according to the manufacturers protocol (Cisbio). Data were normalized to IP1 concentrations using a IP1 standard curve according to the manufacturers protocol (Cisbio).
On the technique in general: TR-FRET usually uses a lanthanide donor and a delayed reading to cut background.

The target in test [2] is T1, PAR2. Kind of test: Trypsin activated FLPR Ca2+ mobilization assay for PAR2 antagonist activity. Format: cell-based. The method, then: Trypin Activated FLPR Assay:
Protocol for Testing Compounds for PAR2 Antagonist Activity Using a Ca2+ Mobilization Assay
Calcium mobilization was measured using 1321N1 cells stably expressing human PAR2. Cells were seeded in 384-well plates at 4,000 cells per well in 20 μl DMEM with Glutamax supplemented with 10% FBS and incubated for 18-24 h at 37° C., 5% CO2 and 95% humidity. […] The addition was done using a FLIPR^TETRA (384-well head, Molecular Devices) and the response was read simultaneously to detect any agonist activity.
In general terms: A change in cytosolic calcium serves as a functional read-out for many receptors and channels.

[3] abbreviates: 1321N1 cells stably expressing human PAR2, agonist SLIGRL-NH2, read-out: hPAR2 IPpone IC50.
Setting [4] is: 1321N1 cells stably expressing human PAR2, agonist Trypsin, Vorapaxar present to block PAR1, read-out: hPAR2 FLPR (Trypsin) IC50.
Where [5] appears, read: hPAR2 IPpone IC50 (μM), 1321N1 cells stably expressing human PAR2, agonist SLIGRL-NH2.
Setting [6] is: hPAR2 FLPR (Trypsin) IC50 (μM), 1321N1 cells stably expressing human PAR2, agonist Trypsin, Vorapaxar present to block PAR1.

T1 sequence (P55085 26-397): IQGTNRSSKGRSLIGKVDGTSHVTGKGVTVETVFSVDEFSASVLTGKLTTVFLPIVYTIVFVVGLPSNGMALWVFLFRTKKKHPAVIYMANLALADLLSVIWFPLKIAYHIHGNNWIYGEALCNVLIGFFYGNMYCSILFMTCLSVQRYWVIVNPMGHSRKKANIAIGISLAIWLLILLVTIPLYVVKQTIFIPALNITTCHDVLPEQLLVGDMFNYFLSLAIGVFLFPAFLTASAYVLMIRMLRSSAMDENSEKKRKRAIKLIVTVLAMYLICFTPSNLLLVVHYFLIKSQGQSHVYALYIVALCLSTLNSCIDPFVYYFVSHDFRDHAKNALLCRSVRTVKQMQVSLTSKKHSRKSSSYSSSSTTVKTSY

Consider `CCCc1c(C(O)c2ncc[nH]2)ccc(F)c1F` (single isomer, unassigned) [Example 11, (3,4-Difluoro-2-propylphenyl)(1H-imidazol-2-yl)methanol], for which the IC50 is over 41 µM in test [1] (setting [3]) and over 77 µM in test [2] (setting [4]). Consider `CCCc1c(C(O)c2ncc[nH]2)ccc(F)c1F` (single isomer, unassigned) [Example 12, (3,4-Difluoro-2-propylphenyl)(1H-imidazol-2-yl)methanol], for which the IC50 in test [1] (setting [3]) was determined as 4 µM; in test [2] (setting [4]) it was 4.9 µM. Turning to `OC(c1ncc[nH]1)c1ccc(F)cc1N1CCCC1` (single isomer, unassigned) [Example 15, (4-Fluoro-2-(pyrrolidin-1-yl)phenyl)(1H-imidazol-2-yl)methanol], the IC50 is over 100 µM in test [1] (hPAR2 IPpone IC50 (μM)) and over 41 µM in test [2] (hPAR2 FLPR (Trypsin) IC50 (μM)). For `OC(c1ncc[nH]1)c1ccc(F)cc1N1CC=CC1` (single isomer, unassigned) [Example 18, (2-(2,5-dihydro-1H-pyrrol-1-yl)-4-fluorophenyl)(1H-imidazol-2-yl)methanol], the IC50 in test [1] (setting [3]) is 0.9 µM; in test [2] (setting [4]), 4.28 µM. `OC(c1ncc[nH]1)c1ccc(F)cc1N1CC=CC1` (single isomer, unassigned) [Example 19, (2-(2,5-dihydro-1H-pyrrol-1-yl)-4-fluorophenyl) (1H-imidazol-2-yl)methanol]: the IC50 is 93 µM in test [1] (setting [3]) and over 100 µM in test [2] (setting [4]). In the case of `CCc1coc2c(F)ccc([C@@H](O)c3ncc[nH]3)c12` (single isomer, unassigned) [Example 41], the 50% inhibitory concentration (IC50) in test [1] (setting [5]) was 26 µM; in test [2] (setting [6]), 2.19 µM. For the molecule `OC(c1ncc[nH]1)c1ccc(F)c2occ(C3CC3)c12` (single isomer, unassigned) [Example 44, (3-Cyclopropyl-7-fluorobenzofuran-4-yl)(1H-imidazol-2-yl)methanol], the IC50 in test [1] (setting [3]) is 6.54 µM; in test [2] (setting [4]) it was over 41 µM.

As to `OC(c1ncc[nH]1)c1ccc(F)c2occ(C3CC3)c12` (single isomer, unassigned) [Example 45, (3-Cyclopropyl-7-fluorobenzofuran-4-yl)(1H-imidazol-2-yl)methanol], the IC50 in test [1] (setting [3]) came out at 0.63 µM; in test [2] (setting [4]), 6.07 µM.

With `Cn1ccc2c(F)ccc(C(O)c3ncc[nH]3)c21` (single isomer, unassigned) [Example 56, (4-Fluoro-1-methyl-1H-indol-7-yl)(1H-imidazol-2-yl)methanol], the IC50 in test [1] (setting [3]) was over 100 µM; in test [2] (setting [4]) it was over 41.6 µM. In test [1] (hPAR2 IPpone IC50 (μM)), `CCCc1cc(F)ccc1C(O)c1ncc[nH]1` (stereo not shown) [Example 1, (4-Fluoro-2-propylphenyl)(1H-imidazol-2-yl)methanol] gave an IC50 of 2.93 µM. Take `CCCc1cc(F)ccc1[C@@H](O)c1ncc[nH]1` [Example 2, (R)-(4-fluoro-2-propylphenyl)(1H-imidazol-2-yl)methanol]: the IC50 is over 100 µM in test [1] (setting [3]) and over 41 µM in test [2] (setting [4]). For the molecule `OC(c1ncc[nH]1)c1ccccc1C1=CCCC1` (stereo not shown) [Example 4, (2-Cyclopentenylphenyl)(1H-imidazol-2-yl)methanol], the IC50 is 6.27 µM in test [1] (setting [3]) and 16.6 µM in test [2] (setting [4]). For the molecule `OC(c1ncc[nH]1)c1ccc(F)cc1C1=CCCC1` (stereo not shown) [Example 5, (2-Cyclopentenyl-4-fluorophenyl)(1H-imidazol-2-yl)methanol], the IC50 in test [1] (setting [3]) was 5.18 µM; in test [2] (setting [4]) it was 13.7 µM. In the same order, the values of `OC(c1ncc[nH]1)c1ccc(F)cc1C1CCCC1` (stereo not shown) [Example 6, (2-Cyclopentyl-4-fluorophenyl)(1H-imidazol-2-yl)methanol] are 5 µM and 9.57 µM. The matching figures for `OC(c1ncc[nH]1)c1ccc(F)cc1C1CCC1` (stereo not shown) [Example 7, (2-Cyclobutyl-4-fluorophenyl)(1H-imidazol-2-yl)methanol]: 11.5 µM and 7.85 µM. `C/C=C/c1cc(F)ccc1C(O)c1ncc[nH]1` (stereo not shown) [Example 8, (E)-(4-Fluoro-2-(prop-1-enyl)phenyl)(1H-imidazol-2-yl)methanol]: the IC50 amounted to 5.64 µM in test [1] (setting [3]) and 5.1 µM in test [2] (setting [4]). Regarding `C/C=C\c1cc(F)ccc1C(O)c1ncc[nH]1` (stereo not shown) [Example 9, (Z)-(4-Fluoro-2-(prop-1-enyl)phenyl)(1H-imidazol-2-yl)methanol], the half-inhibitory concentration (IC50) in test [1] (setting [3]) worked out at 9.66 µM; in test [2] (setting [4]), 6.26 µM. For `CCCc1c(C(O)c2ncc[nH]2)ccc(F)c1F` (stereo not shown) [Example 10, (3,4-Difluoro-2-propylphenyl)(1H-imidazol-2-yl)methanol], the IC50 in test [1] (setting [3]) was 1.66 µM; in test [2] (setting [4]), 5.9 µM. As to `CCCc1c(Cl)cccc1C(O)c1ncc[nH]1` (stereo not shown) [Example 13, (3-Chloro-2-propylphenyl)(1H-imidazol-2-yl)methanol], the 50% inhibitory concentration (IC50) in test [1] (setting [5]) came to 5.45 µM; in test [2] (setting [6]), 12.4 µM. With `OC(c1ncc[nH]1)c1ccc(F)cc1N1CCCC1` (stereo not shown) [Example 14, (4-Fluoro-2-(pyrrolidin-1-yl)phenyl)(1H-imidazol-2-yl)methanol], the results for the concentration for half-maximal inhibition (IC50) in test [1] (hPAR2 IPpone IC50 (μM)) and in test [2] (hPAR2 FLPR (Trypsin) IC50 (μM)) were 1.52 µM and 16.9 µM, respectively.

On to `OC(c1ncc[nH]1)c1ccc(F)cc1N1CC=CC1` (stereo not shown) [Example 17, (2-(2,5-dihydro-1H-pyrrol-1-yl)-4-fluorophenyl)(1H-imidazol-2-yl)methanol], for which the IC50 in test [1] (setting [3]) was determined as 1.05 µM; in test [2] (setting [4]), 8.75 µM.

Consider `OC(c1ncc[nH]1)c1ccc(F)cc1N1CCC1` (stereo not shown) [Example 20, (2-(Azetidin-1-yl)-4-fluorophenyl)(1H-imidazol-2-yl)methanol], for which the IC50 was 4.5 µM in test [1] (setting [3]) and 18.6 µM in test [2] (setting [4]). The matching figures for `OC(c1ncc[nH]1)c1cccc(Cl)c1-n1cccn1` (stereo not shown) [Example 21, (3-Chloro-2-(1H-pyrazol-1-yl)phenyl) (1H-imidazol-2-yl)methanol]: 6.4 µM and 40.3 µM. The matching figures for `OC(c1ncc[nH]1)c1ccc(F)c(F)c1-n1cccn1` (stereo not shown) [Example 22, (3,4-Difluoro-2-(1H-pyrazol-1-yl)phenyl)(1H-imidazol-2-yl)methanol]: 4.6 µM and 20 µM. The matching figures for `OC(c1ncc[nH]1)c1ccc(F)cc1-n1cccn1` (stereo not shown) [Example 23, (4-Fluoro-2-(1H-pyrazol-1-yl)phenyl)(1H-imidazol-2-yl)methanol]: 7.21 µM and 25.4 µM. Consider `CC1(F)CN(c2cc(F)ccc2C(O)c2ncc[nH]2)C1` (stereo not shown) [Example 24, (4-Fluoro-2-(3-fluoro-3-methylazetidin-1-yl)phenyl)(1H-imidazol-2-yl)methanol], for which the IC50 amounted to 6.73 µM in test [1] (setting [3]) and 16.3 µM in test [2] (setting [4]). `CC1CN(c2cc(F)ccc2C(O)c2ncc[nH]2)C1` (stereo not shown) [Example 25, (4-Fluoro-2-(3-methylazetidin-1-yl)phenyl)(1H-imidazol-2-yl)methanol]: the IC50 came out at 6.88 µM in test [1] (setting [3]) and 22 µM in test [2] (setting [4]). With `OC(c1ncc[nH]1)c1ccc(F)cc1N1CC[C@H](F)C1` (stereo partly drawn) [Example 26, (4-Fluoro-2-((S)-3-fluoropyrrolidin-1-yl)phenyl)(1H-imidazol-2-yl)methanol], the concentration for half-maximal inhibition (IC50) in test [1] (setting [3]) was determined as 3.87 µM. In the case of `OC(c1ncc[nH]1)c1ccc(F)cc1N1CC[C@@H](F)C1` (stereo partly drawn) [Example 27, (4-Fluoro-2-((R)-3-fluoropyrrolidin-1-yl)phenyl)(1H-imidazol-2-yl)methanol], the IC50 in test [1] (setting [3]) is 6.96 µM; in test [2] (setting [4]) it was over 41.6 µM. As to `OC(c1ncc[nH]1)c1ccc(F)cc1N1CCC(F)(F)C1` (stereo not shown) [Example 28, (2-(3,3-Difluoropyrrolidin-1-yl)-4-fluorophenyl)(1H-imidazol-2-yl)methanol], the IC50 in test [1] (setting [3]) was 4.91 µM; in test [2] (setting [4]), 30.3 µM. As for `C[C@@H]1CCN(c2cc(F)ccc2C(O)c2ncc[nH]2)C1` (stereo partly drawn) [Example 29, (4-Fluoro-2-((R)-3-methylpyrrolidin-1-yl)phenyl)(1H-imidazol-2-yl)methanol], the IC50 is 13.1 µM in test [1] (setting [3]) and over 41.6 µM in test [2] (setting [4]). As to `OC(c1ncc[nH]1)c1ccc(F)cc1N1CC2CC2C1` (stereo not shown) [Example 30, (2-(3-Azabicyclo[3.1.0]hexan-3-yl)-4-fluorophenyl)(1H-imidazol-2-yl)methanol], the results for the IC50 in test [1] (setting [5]) and in test [2] (setting [6]) were 4.67 µM and 11.6 µM, respectively. Take `OC(c1ncc[nH]1)c1ccc(F)c2ccc(C3CC3)n12` (stereo not shown) [Example 39, (3-Cyclopropyl-8-fluoroindolizin-5-yl)(1H-imidazol-2-yl)methanol]: in test [1] (setting [5]), the IC50 worked out at 13.2 µM. In the case of `Cn1ccc2c(F)ccc(C(O)c3ncc[nH]3)c21` (stereo not shown) [Example 54, (4-Fluoro-1-methyl-1H-indol-7-yl)(1H-imidazol-2-yl)methanol], the IC50 in test [2] (setting [4]) was found to be 6.15 µM.

In the case of `OC(c1ncc[nH]1)c1cccc2cc3n(c12)CCC3` (stereo not shown) [Example 58, (2,3-Dihydro-1H-pyrrolo[1,2-a]indol-5-yl)(1H-imidazol-2-yl)methanol], the IC50 in test [2] (setting [4]) was over 41.6 µM. With `Cn1ncc2c(F)ccc(C(O)c3ncc[nH]3)c21` (stereo not shown) [Example 62, (4-Fluoro-1-methyl-1H-indazol-7-yl)(1H-imidazol-2-yl)methanol], the concentration for half-maximal inhibition (IC50) in test [1] (setting [3]) was 3.38 µM. `CCc1coc2c(F)ccc(C(O)c3ncn[nH]3)c12` (stereo not shown) [Example 63, (3-Ethyl-7-fluorobenzofuran-4-yl)(1H-1,2,4-triazol-5-yl)methanol]: the IC50 in test [2] (setting [4]) was determined as 15.6 µM.

A word on the IC50: it is the concentration that inhibits the measured activity by half.
